Test results from patent US20220296595A1, “CDK INHIBITORS” (QILU REGOR THERAPEUTICS INC., priority 2019, published 2022).
Where two headings read alike, the source gives them in different places.

Experiments:
[1] = molecular target: T1, CDK4/CyclinD1 (Homo sapiens, UniProt P11802); experiment: Assay for inhibition of CDK4/CyclinD1 (Caliper microfluidic kinase assay); assay type: biochemical
T1 construct: purchased Thermofisher PR8064A
Summary of the method: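 IC50 was obtained by 4-parameter sigmoidal fitting after 1 nM CDK4/CyclinD1, 200 μM ATP and 1 μM FL-34 substrate reacted for 3 h at room temperature (pH 7.5 HEPES, 10 mM MgCl2). After EDTA quench, substrate and product were separated and detected on a Caliper microfluidic chip.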

[2] = molecular target: T2, CDK6/CyclinD3 (Homo sapiens, UniProt Q00534); experiment: Assay for inhibition of CDK6/CyclinD3 (Caliper microfluidic kinase assay); assay type: biochemical
T2 construct: purchased Carna 04-107
Description: The CDK6 enzyme assay for IC50 determination was performed as follows. Microfluidic kinase detection technology (Caliper) was used to monitor the phosphorylation of peptide substrate by CDK6/CyclinD3. The total reaction volume is 15 μL containing buffer A (100 mM HEPES (pH 7.5), 0.1% BSA, 0.01% Triton X-100, 1 mM DTT, 10 mM MgCl2, 10 μM Sodium Orthovanadate, 10 μM Beta-Glycerophosphate), 300 μM ATP, 2 nM CDK6/CyclinD3 (Carna, 04-107), 1 μM FL-34 (5-FAM-[…]), and the test compound at appropriate dilutions in DMSO. All components were added to the 384-well plate (Corning, 4514), and incubated at Room Temperature for 3 hours. The reaction was terminated by addition of 15 μL Stop Buffer (180 mM HEPES (pH 7.5), 20 mM EDTA, Coating-3 reagent (PerkinElmer, 760050)). The plate was then loaded on Caliper EZ Reader (EZ Reader II, PerkinElmer, HD-4HYSG2772), and the reaction mixtures including substrate and product were sipped into the microfluidic chip for separation and detection. The IC50 values of the test compound were determined by fitting the inhibition curves by 4 parameter sigmoidal dose-response model using the Xlfit5/GraphPad Prism 5 software.

[3] = molecular target: T3, CDK2/CyclinE1 (Homo sapiens, UniProt P24941); experiment: Assay for inhibition of CDK2/CyclinE1 (Caliper microfluidic kinase assay); assay type: biochemical; settings: read-out: CDK2 IC50
T3 construct: purchased SignalChem C29-18G
Summary of the method: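 IC50 came from 4-parameter fits of substrate-to-product conversion, separated on a Caliper chip after an EDTA stop. Reactions ran 3 hours at room temperature with 100 μM ATP, 5 μM fluorescent FL-18 peptide and 5 nM enzyme in 100 mM HEPES pH 7.5, 10 mM MgCl2.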

[4] = tested on: T47D breast cancer cells; experiment: Anti-proliferation assay in T47D cell (Cyquant, day 6); assay type: cell-based, human; settings: anti-proliferation, T47D cells, read-out: T47D IC50
Summary of the method: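 A ten-point, 3-fold compound series (10 μM down to 0.51 nM) was applied to overnight-settled cells in 10% FBS RPMI 1640, and DNA content was read by CyQuant fluorescence 6 days later. An untreated plate read before dosing served as baseline for subtraction before IC50 fitting.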

[5] = tested on: phosphorylation of Retinoblastoma Protein (pRb Ser807/811 or Ser780) in T47D cells; experiment: Inhibition of phosphorylation of retinoblastoma protein (pRb) in T47D cell (ELISA); assay type: cell-based, human
Description: T47D breast cancer cells from American Type Culture Collection (ATCC, HTB-133) were plated at 40,000 cells/well in 96-well plates, and were incubated in RPMI 1640 medium (Gibco, 31800105) with 10% Fetal Bovine Serum (FBS, Biowest, FB-1058). Cells were then allowed to adhere overnight at 37° C., 5% CO2. The following day, compounds were titrated in a 3-fold dilution scheme, and the highest compound concentration tested was […]. After 24 hours incubation with compounds, cells were lysed in ice-cold lysis buffer containing phosphatase inhibitor cocktail and 1 mM PMSF. Cell lysates (50 μL/well) were then transferred to ELISA plates (pRb Ser807/811 ELISA kit, Cell Signaling, 13152 or pRb Ser780 ELISA kit, Cell Signaling, 13016)). Plates were incubated overnight at 4° C., with constant slow speed shaking. After incubation, plates were washed following manufacturer's recommendations, and then 100 μL reconstituted detection antibody was added to each well and incubated for 1 hour at 37° C. After incubation, plates were washed, and then 100 μL reconstituted HRP-linked secondary antibody was added to each well and incubated for 30 mins at 37° C. After incubation, plates were washed. Then, 100 μL TMB substrate was added to each well and incubated for 10 min at 37° C. or 30 min at 25° C. Finally, 100 μL of STOP solution was added to each well and mixed gently for a few seconds. Plates were read on the Envision plate reader (PerkinElmer, 2104-0010) using the 96-well […] mode. IC50 values were calculated using 4 parameter sigmoidal dose-response model of Xlfit5/GraphPad Prism 5 software.

[6] = Homo sapiens, T47D, read-out: Phospho T47D Ser807 IC50, pRb Ser807 phosphorylation, T47D cells

T2 sequence (Q00534 whole entry): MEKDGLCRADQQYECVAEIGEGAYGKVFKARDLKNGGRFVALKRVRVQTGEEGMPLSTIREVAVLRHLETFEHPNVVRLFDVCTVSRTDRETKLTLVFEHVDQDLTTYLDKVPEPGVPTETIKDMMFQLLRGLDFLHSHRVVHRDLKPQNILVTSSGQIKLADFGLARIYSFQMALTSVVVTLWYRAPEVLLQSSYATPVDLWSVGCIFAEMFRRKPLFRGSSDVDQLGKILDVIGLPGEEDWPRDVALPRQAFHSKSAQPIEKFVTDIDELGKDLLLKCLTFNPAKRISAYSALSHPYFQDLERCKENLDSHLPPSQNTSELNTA
T2 sequence (P30281 whole entry partner): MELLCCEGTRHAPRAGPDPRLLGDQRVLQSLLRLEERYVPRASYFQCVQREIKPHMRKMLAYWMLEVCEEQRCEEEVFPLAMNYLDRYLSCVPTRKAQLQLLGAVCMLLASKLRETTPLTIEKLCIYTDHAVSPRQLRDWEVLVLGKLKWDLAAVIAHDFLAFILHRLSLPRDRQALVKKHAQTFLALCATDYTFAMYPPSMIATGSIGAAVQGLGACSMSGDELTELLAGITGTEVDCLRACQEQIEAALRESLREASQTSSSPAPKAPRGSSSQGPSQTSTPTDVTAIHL
T1 sequence (P11802 whole entry): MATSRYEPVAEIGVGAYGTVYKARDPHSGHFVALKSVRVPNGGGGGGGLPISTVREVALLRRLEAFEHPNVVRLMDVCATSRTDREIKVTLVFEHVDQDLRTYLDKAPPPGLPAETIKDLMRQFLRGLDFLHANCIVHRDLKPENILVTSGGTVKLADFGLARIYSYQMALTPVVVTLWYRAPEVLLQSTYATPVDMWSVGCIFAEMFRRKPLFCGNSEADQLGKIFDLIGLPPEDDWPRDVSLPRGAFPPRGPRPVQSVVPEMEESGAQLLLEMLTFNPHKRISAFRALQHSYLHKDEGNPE
T1 sequence (P24385 whole entry partner): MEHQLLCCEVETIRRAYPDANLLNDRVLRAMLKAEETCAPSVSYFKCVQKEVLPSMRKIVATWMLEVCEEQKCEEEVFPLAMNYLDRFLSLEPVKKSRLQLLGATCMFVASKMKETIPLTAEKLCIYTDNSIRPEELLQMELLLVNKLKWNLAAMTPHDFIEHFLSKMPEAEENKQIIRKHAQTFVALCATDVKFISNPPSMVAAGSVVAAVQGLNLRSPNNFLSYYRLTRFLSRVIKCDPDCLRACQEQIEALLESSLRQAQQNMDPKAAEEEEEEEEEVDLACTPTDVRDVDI

| Molecule | IC50 ([1]; CDK4/CyclinD1, 200 μM ATP) [µM] | IC50 ([2]; CDK6/CyclinD3, 300 μM ATP) [µM] | IC50 ([3]; CDK2/CyclinE1, 100 μM ATP) [µM] | IC50 [4] [µM] | IC50 ([4]; Homo sapiens, T47D) [µM] | IC50 [5, 6] [µM] | IC50 ([1]; CDK4/CyclinD1) [µM] | IC50 ([3]; CDK2/CyclinE1) [µM] | IC50 ([2]; CDK6/CyclinD3) [µM] | IC50 ([5]; pRb Ser807 phosphorylation, T47D cells, read-out: Phospho T47D Ser807 IC50) [µM] |
| --- | --- | --- | --- | --- | --- | --- | --- | --- | --- | --- |
| CC(C)c1cnn2ccc(-c3ccnc(Nc4ccc(N5CCC(N(C)C)CC5)cn4)n3)cc12 (single isomer, unassigned) [Synthetic Example 161, N-[5-[4-(dimethylamino)-1-piperidyl]-2-pyridyl]-4-(3-isopropylpyrazolo[1,5-a]pyridin-5-yl)pyrimidin-2-amine] | < 0.01 | < 0.01 | < 0.01 | < 0.1 |  |  |  |  |  |  |
| CC(C)c1cnn2ccc(-c3nc(NC4CCN(S(C)(=O)=O)CC4)ncc3F)cc12 [Synthetic Example 10] | 0.01 to 0.1 | 0.1 to 1 | 0.01 to 0.1 |  | 0.1 to 0.5 |  |  |  |  |  |
| CC(C)c1cnn2ccc(-c3ccnc(Nc4ccn(CC5CCN(C(=O)CO)CC5)n4)n3)cc12 [Synthetic Example 55] | 0.01 to 0.1 |  | > 1 |  | 0.5 to 1 | 0.1 to 0.5 |  |  |  |  |
| CC(C)c1cnn2ccc(-c3nc(Nc4ccc(N5CCOCC5=O)cn4)ncc3F)cc12 [compound 2] | < 0.01 | 0.01 to 0.1 | < 0.01 |  | < 0.1 |  |  |  |  |  |
| CC(C)c1cnn2ccc(-c3nc(Nc4ccc(CN5CCN6CCCC6C5)cn4)ncc3F)cc12 (stereo not drawn) [compound 8] | 0.01 to 0.1 | 0.1 to 1 | > 1 |  | > 1 |  |  |  |  |  |
| CC(C)c1cnn2ccc(-c3nc(Nc4ccc(N5CCC(N(C)C)CC5)cn4)ncc3F)cc12 [compound 9] | < 0.01 | 0.01 to 0.1 | 0.1 to 1 |  | 0.1 to 0.5 |  |  |  |  |  |
| Cc1nc(Nc2ncc(F)c(-c3ccn4ncc(C(C)C)c4c3)n2)ccc1C(=O)N1CCC(NC2CC2)CC1 [compound 11] | 0.01 to 0.1 | 0.01 to 0.1 | 0.1 to 1 |  | 0.1 to 0.5 |  |  |  |  |  |
| CC(C)c1cnn2ccc(-c3nc(Nc4ccc(CN5CCOCC5=O)cn4)ncc3F)cc12 [compound 15] | 0.01 to 0.1 | 0.1 to 1 | 0.1 to 1 |  | 0.5 to 1 |  |  |  |  |  |
| CC(C)c1cnn2ccc(-c3ccnc(Nc4ccn(CC5CCNCC5)n4)n3)cc12 [compound 32] | 0.01 to 0.1 |  | > 1 |  | 0.1 to 0.5 | 0.1 to 0.5 |  |  |  |  |
| CC(C)c1cnn2ccc(-c3ccnc(Nc4cnn(CC5CCNCC5)c4)n3)cc12 [compound 36] | 0.01 to 0.1 |  | 0.01 to 0.1 |  | 0.1 to 0.5 | 0.1 to 0.5 |  |  |  |  |
| CC(C)c1cnn2ccc(-c3ccnc(Nc4ccn(CC5CCN(C(=O)CC#N)CC5)n4)n3)cc12 [compound 56] | 0.01 to 0.1 |  | > 1 |  |  | 0.1 to 0.5 |  |  |  |  |
| COc1nc(-c2nc(Nc3ccc(N4CC5CCC(C4)O5)cn3)ncc2F)cc2c1nc(C)n2C(C)C [compound 65] |  |  |  |  |  | 0.1 to 0.5 | 0.01 to 0.1 | > 1 |  |  |
| COc1nc(-c2ccnc(Nc3ccc(CN4CCC(C#N)C4)cn3)n2)cc2c1ncn2C(C)C (stereo not drawn) [compound 67] |  |  |  |  |  | 0.1 to 0.5 | 0.01 to 0.1 | > 1 |  |  |
| COc1nc(-c2nc(Nc3ccc(N4CCOCC4=O)cn3)ncc2C)cc2c1nc(C)n2C(C)C [compound 75] |  |  |  |  | < 0.1 |  | < 0.01 | 0.1 to 1 | 0.01 to 0.1 |  |
| COc1nc(-c2ccnc(Nc3ccc(CN4CCC(F)C4)cn3)n2)cc2c1ncn2C(C)C (stereo not drawn) [compound 76] |  |  |  |  |  | 0.1 to 0.5 | 0.01 to 0.1 | > 1 |  |  |
| COc1nc(-c2nc(Nc3ccc(N4CCC5(CC4)CC(=O)NC5=O)cn3)ncc2F)cc2c1nc(C)n2C(C)C [compound 79] |  |  |  |  |  | 0.1 to 0.5 | 0.01 to 0.1 | > 1 |  |  |
| COc1nc(-c2nc(Nc3ccc(C(=O)N4CCC(NC5CC5)CC4)c(C)n3)ncc2F)cc2c1nc(C)n2C(C)C [compound 86] |  |  |  |  | 0.1 to 0.5 |  | 0.01 to 0.1 | > 1 | 0.01 to 0.1 |  |
| COc1nc(-c2nc(Nc3ccc(N4CCNCC4=O)cn3)ncc2F)cc2c1nc(C)n2C(C)C [compound 107] | < 0.01 | 0.01 to 0.1 | > 1 |  | 0.1 to 0.5 |  |  |  |  |  |
| COc1nc(-c2nc(Nc3ccc(N4CCN(CC(F)(F)F)CC4=O)cn3)ncc2F)cc2c1nc(C)n2C(C)C [compound 124] | < 0.01 | 0.01 to 0.1 | > 1 |  | 0.1 to 0.5 |  |  |  |  |  |
| COc1nc(-c2nc(Nc3ccc(N4CCN(CCF)CC4)cn3)ncc2F)cc2c1ncn2C(C)C [compound 125] | 0.01 to 0.1 |  | > 1 |  |  | 0.1 to 0.5 |  |  |  |  |
| COc1nc(-c2nc(Nc3ccc(N4CCN(C5COC5)CC4)cn3)ncc2F)cc2c1ncn2C(C)C [compound 133] | 0.01 to 0.1 |  | > 1 |  |  | 0.1 to 0.5 |  |  |  |  |
| CNC1CCCN(c2ccc(Nc3nccc(-c4ccn5ncc(C(C)C)c5c4)n3)cc2)C1=O (stereo not drawn) [compound 215] | < 0.01 | < 0.01 | < 0.01 |  | < 0.1 |  |  |  |  |  |
| CNC1CCCN(c2ccc(Nc3nccc(-c4ccn5nc(C)c(C(C)C)c5c4)n3)cc2)C1=O (stereo not drawn) [compound 217] | < 0.01 | < 0.01 | 0.01 to 0.1 |  | < 0.1 |  |  |  |  |  |
| CC(C)c1cnn2ccc(-c3ccnc(Nc4ccc(N5CCNCC5=O)cc4)n3)cc12 [compound 226] | < 0.01 | < 0.01 | < 0.01 |  | < 0.1 |  |  |  |  |  |
| CC(C)n1cnc2c(F)nc(-c3ccnc(Nc4ccc(N5CCN(C)CC5)cn4)n3)cc21 [compound 290] | < 0.01 |  | 0.1 to 1 |  |  | < 0.1 |  |  |  |  |
| N-[5-[4-(dimethylamino)-1-piperidyl]-2-pyridyl]-4-(3-isopropylpyrazolo[1,5-a]pyridin-5-yl)pyrimidin-2-amine [Synthetic Example 161] |  |  |  |  |  |  |  |  |  | < 0.1 |
